Here are results for one molecule from patent publication US9180215B2, “Positron emission tomography imaging method” (PURDUE RESEARCH FOUNDATION, priority 2007, dated 2015).

The target of this test is T1, folate receptors on KB cells (Homo sapiens, UniProt P15328).
T1 construct: endogenous in cells; host or cells: KB cells
Description: Competitive binding assay using KB cells (displacement of 3H-folic acid). The settings on record: competitive binding at folate receptors on KB cells, 10 nM 3H-folic acid, 37° C., 1 h. The procedure: Competitive binding assay using KB cells. Relative binding affinity of the folate-fluoro-phenyl conjugate was evaluated according to the standard literature protocol by Westerhof et. al. (Mol Pharmacol, 1995, 48, 459-471) and C. P. Leamon et. al. (Bioconjugate Chem., 2006, 17 (5), 1226-1232) with minor modification.
Then cells were rinsed three times with 250 μL of PBS (phosphate saline buffer) and one time with trichloro-acetic acid. 1% sodium dodecylsulfate (250 μL) in PBS were added to each well and after 10 min cell lysates were transferred to individual vials containing 3 mL of scintillation cocktail and radioactivity was counted.

T1 sequence (P15328 25-234): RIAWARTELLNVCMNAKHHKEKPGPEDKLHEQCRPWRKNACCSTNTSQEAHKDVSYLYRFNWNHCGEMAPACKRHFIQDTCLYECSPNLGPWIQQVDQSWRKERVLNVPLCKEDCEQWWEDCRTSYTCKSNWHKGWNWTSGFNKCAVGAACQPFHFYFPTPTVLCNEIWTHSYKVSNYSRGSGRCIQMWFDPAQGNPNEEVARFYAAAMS

`Nc1nc2ncc(CNc3ccc(C(=O)N[C@@H](CCC(=O)NCCNC(=O)CCOCCOCCOCCOCCOCCOCCNC(=O)c4ccc(F)cc4)C(=O)O)cc3)nc2c(=O)[nH]1` [compound of FIG. 1]: the Kd (as a rule, the equilibrium constant for the complex coming apart) came to 23.8 nM.
